Where two headings read alike, the source gives them in different places.
What was measured:
[1] = molecular target: T1, human 5-hydroxytryptamine-2C (h5-HT2C) receptor (Homo sapiens, UniProt P28335); assay: [125I]DOI binding to membranes of CHO cells expressing the human 5-HT2C receptor; settings: [125I]DOI radioligand, CHO cell membranes, room temperature 60 min; read-out: 5-HT2C Affinity Ki
T1 construct: expressed in transfected cells; host or cells: CHO (Chinese Hamster Ovary) cells; membranes
T1 sequence (P28335 33-458): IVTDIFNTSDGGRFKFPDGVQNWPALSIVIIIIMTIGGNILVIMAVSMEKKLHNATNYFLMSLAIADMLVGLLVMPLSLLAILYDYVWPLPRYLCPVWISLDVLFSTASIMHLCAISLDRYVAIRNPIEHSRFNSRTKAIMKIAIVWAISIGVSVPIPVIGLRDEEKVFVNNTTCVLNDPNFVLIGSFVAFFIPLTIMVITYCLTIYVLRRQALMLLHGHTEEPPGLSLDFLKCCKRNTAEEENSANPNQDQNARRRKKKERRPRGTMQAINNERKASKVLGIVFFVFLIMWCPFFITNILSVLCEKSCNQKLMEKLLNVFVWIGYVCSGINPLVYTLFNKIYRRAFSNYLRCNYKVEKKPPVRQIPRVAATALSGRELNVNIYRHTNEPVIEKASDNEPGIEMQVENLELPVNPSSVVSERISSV

human 5-HT2C receptor = molecular target: T2, human 5-HT2C receptor (Homo sapiens, UniProt P28335); assay: 5-HT2C receptor-stimulated calcium mobilization (FLIPR) in CHO cells; format: cell-based; settings: for Emax: CHO; for EC50: calcium mobilization, CHO cells stably expressing human 5-HT2C, read-out: 5-HT2C Function EC50;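 for all read-outs here: Fluo-3-AM fluorescence read on FLIPR every 1 s, agonist added after 10 baseline reads, response taken as peak minus lowest raw fluorescence count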
T2 sequence (P28335 33-458): T1 sequence (P28335 33-458)

[2] = percentage of the response observed with a maximally effective concentration of 5-HT, read-out: 5-HT2C Function Emax (%)

Row | SMILES | Ki [1] | Emax (human 5-HT2C receptor; [2]) | EC50 (human 5-HT2C receptor) | Emax (human 5-HT2C receptor; read-out: 5-HT2C Function Emax (%), percentage of the response observed with a maximally effective concentration of 5-HT)
1 | COc1ccc(OC)c(-c2cccc3c2OC(CN)C3)c1 (racemic) [Example 162, (±)-{[7-(2,5-dimethoxyphenyl)-2,3-dihydro-1-benzofuran-2-yl]methyl}amine] | 13 nM | 100% | 24 nM | –
2 | NCC1Cc2cccc(-c3cc(Cl)ccc3Cl)c2O1 (racemic) [Example 163, (±)-{[7-(2,5-dichlorophenyl)-2,3-dihydro-1-benzofuran-2-yl]methyl}amine] | 0.23 nM | 90% | 2 nM | –
3 | NCC1Cc2cccc(-c3c(Cl)cc(Cl)cc3Cl)c2O1 (racemic) [Example 166, (±)-{[7-(2,4,6-trichlorophenyl)-2,3-dihydro-1-benzofuran-2-yl]methyl}amine] | 8 nM | 90% | 0.2 nM | –
4 | Cc1cc(Cl)ccc1-c1cccc2c1OC(CN)C2 (racemic) [Example 167, (±)-{[7-(4-chloro-2-methylphenyl)-2,3-dihydro-1-benzofuran-2-yl]methyl}amine] | 3.1 nM | 90% | 21 nM | –
5 | Cc1ccc(Cl)cc1-c1cccc2c1OC(CN)C2 (racemic) [Example 168, (±)-{[7-(5-chloro-2-methylphenyl)-2,3-dihydro-1-benzofuran-2-yl]methyl}amine] | 2 nM | 100% | 1 nM | –
6 | COc1ccc(Cl)cc1-c1cccc2c1OC(CN)C2 (racemic) [Example 169, (±)-{[7-(5-chloro-2-methoxyphenyl)-2,3-dihydro-1-benzofuran-2-yl]methyl}amine] | 14 nM | 100% | 50 nM | –
7 | NCC1Cc2cccc(-c3cccnc3)c2O1 (racemic) [Example 170, (±)-[(7-pyridin-3-yl-2,3-dihydro-1-benzofuran-2-yl)methyl]amine] | 3.3 nM | 90% | 14 nM | –
8 | COc1ccccc1-c1cc(F)cc2c1OC(CN)C2 (racemic) [Example 195, (±)-{[5-fluoro-7-(2-methoxyphenyl)-2,3-dihydro-1-benzofuran-2-yl]methyl}amine] | 0.48 nM | 80% | 9 nM | –
9 | Cc1cccc(-c2cc(F)cc3c2OC(CN)C3)c1 (racemic) [Example 198, (±)-{[5-fluoro-7-(3-methylphenyl)-2,3-dihydro-1-benzofuran-2-yl]methyl}amine] | 17 nM | 60% | 903 nM | –
10 | NCC1Cc2cc(F)cc(-c3ccc(F)cc3)c2O1 (racemic) [Example 199, (±)-{[5-fluoro-7-(4-fluorophenyl)-2,3-dihydro-1-benzofuran-2-yl]methyl}amine] | 19 nM | 80% | 416 nM | –
11 | NCC1Cc2cc(F)cc(-c3ccc(Cl)cc3)c2O1 (racemic) [Example 200, (±)-{[5-fluoro-7-(4-chlorophenyl)-2,3-dihydro-1-benzofuran-2-yl]methyl}amine] | 12 nM | 80% | 369 nM | –
12 | Cc1ccc(-c2cc(F)cc3c2OC(CN)C3)cc1 (racemic) [Example 201, (±)-{[5-fluoro-7-(4-methylphenyl)-2,3-dihydro-1-benzofuran-2-yl]methyl}amine] | 8 nM | 80% | 396 nM | –
13 | COc1ccc(-c2cc(F)cc3c2OC(CN)C3)cc1 (racemic) [Example 202, (±)-{[5-fluoro-7-(4-methoxyphenyl)-2,3-dihydro-1-benzofuran-2-yl]methyl}amine] | 11 nM | 80% | 105 nM | –
14 | NCC1Cc2cc(F)cc(-c3ccsc3)c2O1 (racemic) [Example 203, (±)-[(5-fluoro-7-thien-3-yl-2,3-dihydro-1-benzofuran-2-yl)methyl]amine] | 8.5 nM | 80% | 187 nM | –
15 | NCC1Cc2cc(F)cc(-c3ccoc3)c2O1 (racemic) [Example 204, (±)-{[5-fluoro-7-(3-furyl)-2,3-dihydro-1-benzofuran-2-yl]methyl}amine] | 1.3 nM | 90% | 336 nM | –
16 | NCC1Cc2cc(F)cc(-c3ccccn3)c2O1 (racemic) [Example 205, (±)-[(5-fluoro-7-pyridin-2-yl-2,3-dihydro-1-benzofuran-2-yl)methyl]amine] | 3 nM | 80% | 280 nM | –
17 | NCC1Cc2cc(F)cc(-c3cccnc3)c2O1 (racemic) [Example 206, (±)-[(5-fluoro-7-pyridin-3-yl-2,3-dihydro-1-benzofuran-2-yl)methyl]amine] | 1.7 nM | 90% | 4 nM | –
18 | NCC1Cc2cc(F)cc(-c3ccncc3)c2O1 (racemic) [Example 209, (±)-[(5-fluoro-7-pyridin-4-yl-2,3-dihydro-1-benzofuran-2-yl)methyl]amine] | 2.3 nM | 90% | 57 nM | –
19 | NCC1Cc2cc(F)cc(-c3cccc(Cl)c3Cl)c2O1 (racemic) [Example 211, (±)-{[7-(2,3-dichlorophenyl)-5-fluoro-2,3-dihydro-1-benzofuran-2-yl]methyl}amine] | 19 nM | 70% | 672 nM | –
20 | COc1cccc(-c2cc(F)cc3c2OC(CN)C3)c1OC (racemic) [Example 212, (±)-{[7-(2,3-dimethoxyphenyl)-5-fluoro-2,3-dihydro-1-benzofuran-2-yl]methyl}amine] | 2.4 nM | 90% | 11 nM | –
21 | NCC1Cc2cc(F)cc(-c3ccc(F)cc3F)c2O1 (racemic) [Example 215, (±)-{[7-(2,4-difluorophenyl)-5-fluoro-2,3-dihydro-1-benzofuran-2-yl]methyl}amine] | 5 nM | 80% | 80 nM | –
22 | NCC1Cc2cc(F)cc(-c3ccc(Cl)cc3Cl)c2O1 (racemic) [Example 216, (±)-{[7-(2,4-dichlorophenyl)-5-fluoro-2,3-dihydro-1-benzofuran-2-yl]methyl}amine] | 0.7 nM | – | 0.2 nM | 100%
23 | COc1ccc(-c2cc(F)cc3c2OC(CN)C3)c(OC)c1 (racemic) [Example 219, (±)-{[7-(2,4-dimethoxyphenyl)-5-fluoro-2,3-dihydro-1-benzofuran-2-yl]methyl}amine] | 7 nM | 90% | 79 nM | –
24 | NCC1Cc2cc(F)cc(-c3cc(F)ccc3F)c2O1 (racemic) [Example 220, (±)-{[7-(2,5-difluorophenyl)-5-fluoro-2,3-dihydro-1-benzofuran-2-yl]methyl}amine] | 8 nM | 90% | 30 nM | –
25 | NCC1Cc2cc(F)cc(-c3cc(Cl)ccc3Cl)c2O1 (racemic) [Example 221, (±)-{[7-(2,5-dichlorophenyl)-5-fluoro-2,3-dihydro-1-benzofuran-2-yl]methyl}amine] | 1.4 nM | 90% | 2 nM | –
26 | Cc1ccc(C)c(-c2cc(F)cc3c2OC(CN)C3)c1 (racemic) [Example 222, (±)-{[7-(2,5-dimethylphenyl)-5-fluoro-2,3-dihydro-1-benzofuran-2-yl]methyl}amine] | 18 nM | 80% | 120 nM | –
27 | COc1ccc(OC)c(-c2cc(F)cc3c2OC(CN)C3)c1 (racemic) [Example 223, (±)-{[7-(2,5-dimethoxyphenyl)-5-fluoro-2,3-dihydro-1-benzofuran-2-yl]methyl}amine] | 10 nM | 80% | 30 nM | –

Source: patent publication US7435837B2, “Dihydrobenzofuranyl alkanamine derivatives and methods for using same” (Wyeth, priority 2003, dated 2008)
